Results: patent US3982931A, “N,N-di-sec.butyl-benzamide herbicides” (priority 1967, dated 1976)

Columns and labels:
zea mais L. (corn) = assay: activity on agrarian species, soil treatment one day after sowing; type: in vivo; details: in vivo
Excerpt: (§1) The infesting species and the agrarian species have been indicated in Table 1 by letters, as follows:
(§2) Method of evaluation of the results (of tests):
(§3) 0 = no activity and no difference with respect to the control;
(§4) 1 slight differences with respect to the control;
(§5) 3 = considerable activity with damages that definitely impair the further development of most of the small plants; an activity degree already useful for practical purposes;
(§6) 4 = maximum of activity with lack of germination or total containment of the small plants in the emerging stage.
(§7) In the case of an intermediate activity between two classes of the scale, both values are recorded with the one which corresponds to the preeminent activity preceding.
(§8) TABLE 2 reports the activity data of other compounds that fall within the class which is the object of this invention.
(§9) TABLE 3 reports data on the herbicidal activity against infesting herbs, while TABLE 4 reports data concerning the activity on useful species of agricultural cultivations. These tables employ the criterion explained previously. The product was spread on the soil one day after sowing, in quantities of 1, 3, 6, 8, 10, 12 and 14 kg/ha.

[1] = tested on: phaseolus vulgaris (bean); assay: as above; type: in vivo, Phaseolus vulgaris L.; details: in vivo
Excerpt: as §1
I = phaseolus vulgaris (bean)
as §2, §3, §4, §5, §6, §7, §8, §9

[2] = tested on: triticum vulgare L. (wheat); assay: as above; type: in vivo; details: in vivo
Excerpt: as §1
N = triticum vulgare L. (wheat)
as §2, §3, §4, §5, §6, §7, §8, §9

avena sativa (oats) = assay: as above; type: in vivo, Avena sativa L.; details: in vivo
Excerpt: as §1, §2, §3, §4, §5, §6, §7, §8, §9

artemisia vulgaris L. = assay: herbicidal activity, soil treatment one day after sowing; type: in vivo
Excerpt: as §1
B = artemisia vulgaris L.
as §2, §4, §5, §6, §7, §8
(§10) TABLE 3 reports data on the herbicidal activity against infesting herbs, while TABLE 4 reports data concerning the activity on useful species of agricultural cultivations. These tables employ the criterion explained previously. […]

pisum sativum L. (pea) = assay: activity on agrarian species, soil treatment one day after sowing; type: in vivo; details: in vivo
Excerpt: as §1
L = pisum sativum L. (pea)
as §2, §3, §4, §5, §6, §7, §8, §10

[3] = tested on: echinocloa crus-galli R.S.; assay: herbicidal activity, soil treatment one day after sowing; type: in vivo
Excerpt: as §1
D = echinocloa crus-galli R.S.
as §2, §4, §5, §6, §7, §8, §10

[4] = tested on: beta vulgaris L. (sugar-beet); assay: activity on agrarian species, soil treatment one day after sowing; type: in vivo; details: in vivo
Excerpt: as §1
H = beta vulgaris L. (sugar-beet)
as §2, §3, §4, §5, §6, §7, §8, §9

setaria glauca L. = assay: herbicidal activity, soil treatment one day after sowing; type: in vivo
Excerpt: as §1, §2, §4, §5, §6
(§11) In the case of an intermediate activity between two classes of the scale, both values are recorded with the one which corresponds to the preeminent activity preceding. […]
as §10

[5] = tested on: amaranthus retroflexus L.; assay: as above; type: in vivo
Excerpt: as §1
A = amaranthus retroflexus L.
as §2, §4, §5, §6, §7, §8, §10

solanum Lycopersicum L. = assay: activity on agrarian species, soil treatment one day after sowing; type: in vivo; details: in vivo
Excerpt: as §1
M = solanum Lycopersicum L.
as §2, §3, §4, §5, §6, §11

vicia sativa L. = assay: herbicidal activity, soil treatment one day after sowing; type: in vivo
Excerpt: as §1, §2, §4, §5, §6, §7, §8

oryza sativa L. (rice) = assay: activity on agrarian species, soil treatment one day after sowing; type: in vivo; details: in vivo
Excerpt: as §1
P = oryza sativa L. (rice)
as §2, §3, §4, §5, §6, §7, §8, §9

chenopodium album L. = assay: herbicidal activity, soil treatment one day after sowing; type: in vivo
Excerpt: as §1, §2, §4, §5, §6, §7, §8, §10

| SMILES | activity on O, 0-4 scale (zea mais L. (corn)) | activity on I, 0-4 scale [1] | activity on N, 0-4 scale [2] | activity on G, 0-4 scale (avena sativa (oats)) | activity on L, 0-4 scale (pisum sativum L. (pea)) | activity on M, 0-4 scale (solanum Lycopersicum L.) | activity on P, 0-4 scale (oryza sativa L. (rice)) | activity on B, 0-4 scale (artemisia vulgaris L.; 2 kg/ha) | activity on B, 0-4 scale (artemisia vulgaris L.; 6 kg/ha) | activity on D, 0-4 scale ([3]; 2 kg/ha) | activity on D, 0-4 scale ([3]; 6 kg/ha) | activity on E, 0-4 scale (setaria glauca L.; 2 kg/ha) | activity on A, 0-4 scale ([5]; 2 kg/ha) | activity on A, 0-4 scale ([5]; 6 kg/ha) | activity on F, 0-4 scale (vicia sativa L.; 2 kg/ha) | activity on F, 0-4 scale (vicia sativa L.; 6 kg/ha) | activity on C, 0-4 scale (chenopodium album L.; 2 kg/ha) | activity on C, 0-4 scale (chenopodium album L.; 6 kg/ha) | activity on E, 0-4 scale (setaria glauca L.; 6 kg/ha) | activity on D, 0-4 scale ([3]; 4 kg/ha) | further results |
| --- | --- | --- | --- | --- | --- | --- | --- | --- | --- | --- | --- | --- | --- | --- | --- | --- | --- | --- | --- | --- | --- |
| CCN(CC)C(=O)c1ccc(Cl)c(Cl)c1 [PA61, 3,4-dichloro-N,N-diethyl-benzamide, reference compound] | 2 | 1 | 1 | 1 | 1 | 3-4 | 3 | 3 | 3-4 | 1 | 3 | 2 | 3 | 3-4 | 2-3 | 3 | 3 | 3 |  |  | activity on H, 0-4 scale [4]: 3-4 |
| CCN(CC)C(=O)c1cccc(Cl)c1 [PA321, 3,chloro-N,N-diethyl-benzamide, reference compound] | 0-1 | 1-0 | 2-3 | 1 | 2 |  | 2 |  | 2 |  | 1 |  |  | 1-2 |  | 1 |  | 1-2 | 1 |  |  |
| CCC(C)N(C(=O)c1cccc(Br)c1)C(C)CC (stereo not shown) [PA337/3/Br, 3-bromo-N,N-di-sec.butyl-benzamide] | 0 |  | 0 | 0 | 0 |  | 0 |  | 3 | 2 | 4 | 2-3 | 1 |  | 0-1 |  | 1 | 4 | 4 | 4 | activity on B, 0-4 scale (artemisia vulgaris L.; 4 kg/ha): 1; activity on H, 0-4 scale [4]: 1; activity on E, 0-4 scale (setaria glauca L.; 4 kg/ha): 4; activity on A, 0-4 scale ([5]; 4 kg/ha): 2-3; activity on C, 0-4 scale (chenopodium album L.; 4 kg/ha): 3 |
| CCC(C)N(C(=O)c1cc(Cl)c(Cl)cc1Cl)C(C)CC (stereo not shown) [PA338, 2,4,5-trichloro-N,N-di-sec.butyl-benzamide] | 0 | 0 | 0 | 0 | 0 |  | 0 |  | 1-2 | 2-3 | 3-4 | 2-3 |  | 2 |  | 0-1 |  | 2 | 3-4 | 3 | activity on E, 0-4 scale (setaria glauca L.; 4 kg/ha): 3 |
| CCC(C)N(C(=O)c1cc(Cl)ccc1Cl)C(C)CC (stereo not shown) [PA412, 2,5-dichloro-N,N-di-sec.butyl-benzamide] | 0 | 0 | 0 | 0 | 0 | 1 | 0 |  | 2 | 3 | 4 | 3 |  | 3 |  | 0 |  | 2-3 | 4 |  | activity on B, 0-4 scale (artemisia vulgaris L.; 3 kg/ha): 1; activity on D, 0-4 scale ([3]; 1 kg/ha): 1-2; activity on D, 0-4 scale ([3]; 3 kg/ha): 3-4; activity on E, 0-4 scale (setaria glauca L.; 1 kg/ha): 3; activity on E, 0-4 scale (setaria glauca L.; 3 kg/ha): 4; activity on A, 0-4 scale ([5]; 3 kg/ha): 2; activity on F, 0-4 scale (vicia sativa L.; 3 kg/ha): 0; activity on C, 0-4 scale (chenopodium album L.; 3 kg/ha): 1-2 |
| CCC(C)N(C(=O)c1ccc(C)c(Cl)c1)C(C)CC (stereo not shown) [PA445, 3-chloro,4-methyl-N,N-di-sec.butyl-benzamide] | 0 | 0 | 0 | 0 | 0 | 0 | 0 | 1 | 3-4 | 3 | 4 | 3-4 | 0-1 | 2 | 0 | 0-1 | 1 | 4 | 4 | 3-4 | activity on B, 0-4 scale (artemisia vulgaris L.; 4 kg/ha): 2; activity on A, 0-4 scale ([5]; 4 kg/ha): 1; activity on F, 0-4 scale (vicia sativa L.; 4 kg/ha): 0; activity on C, 0-4 scale (chenopodium album L.; 4 kg/ha): 2-3 |
| CCC(C)N(C(=O)c1ccc(Br)c(C)c1)C(C)CC (stereo not shown) [PA481, 3-methyl,4-bromo-N,N-di-sec.butyl-benzamide] | 0 | 0 | 0 | 0 | 0 |  | 0 |  | 3 |  |  |  |  |  |  | 0-1 |  | 2-3 | 3-4 |  |  |

The next lines start with results.

| activity on O, 0-4 scale (zea mais L. (corn)) | activity on I, 0-4 scale [1] | activity on N, 0-4 scale [2] | activity on G, 0-4 scale (avena sativa (oats)) | activity on L, 0-4 scale (pisum sativum L. (pea)) | activity on M, 0-4 scale (solanum Lycopersicum L.) | activity on P, 0-4 scale (oryza sativa L. (rice)) | SMILES | activity on B, 0-4 scale (artemisia vulgaris L.; 2 kg/ha) | activity on B, 0-4 scale (artemisia vulgaris L.; 6 kg/ha) | activity on D, 0-4 scale ([3]; 2 kg/ha) | activity on D, 0-4 scale ([3]; 6 kg/ha) | activity on E, 0-4 scale (setaria glauca L.; 2 kg/ha) | activity on A, 0-4 scale ([5]; 2 kg/ha) | activity on A, 0-4 scale ([5]; 6 kg/ha) | activity on F, 0-4 scale (vicia sativa L.; 2 kg/ha) | activity on F, 0-4 scale (vicia sativa L.; 6 kg/ha) | activity on C, 0-4 scale (chenopodium album L.; 2 kg/ha) | activity on C, 0-4 scale (chenopodium album L.; 6 kg/ha) | activity on E, 0-4 scale (setaria glauca L.; 6 kg/ha) | activity on D, 0-4 scale ([3]; 4 kg/ha) | further results |
| --- | --- | --- | --- | --- | --- | --- | --- | --- | --- | --- | --- | --- | --- | --- | --- | --- | --- | --- | --- | --- | --- |
|  | 0 | 0 | 0 | 0 |  | 0 | CCC(C)N(C(=O)c1ccc(Cl)c(Cl)c1Cl)C(C)CC (stereo not shown) [PA488, 2,3,4-trichloro-N,N-di-sec.butyl-benzamide] | 0 |  | 3-4 | 4 |  | 0 | 3-4 | 0 | 0 | 1-2 | 3 | 4 | 4 | activity on B, 0-4 scale (artemisia vulgaris L.; 4 kg/ha): 0-1; activity on D, 0-4 scale ([3]; 1 kg/ha): 2; activity on E, 0-4 scale (setaria glauca L.; 4 kg/ha): 4; activity on A, 0-4 scale ([5]; 4 kg/ha): 1; activity on F, 0-4 scale (vicia sativa L.; 4 kg/ha): 0; activity on C, 0-4 scale (chenopodium album L.; 4 kg/ha): 3 |
| 0 | 0 | 0 | 0 | 0 |  | 0 | CCC(C)N(C(=O)c1cccc(I)c1)C(C)CC (stereo not shown) [PA491, 3-iodo-N,N-di-sec.butyl-benzamide] | 1 | 4 | 3 | 4 | 3 | 1 | 3-4 | 0 | 1 | 2 | 3-4 | 4 |  | activity on B, 0-4 scale (artemisia vulgaris L.; 4 kg/ha): 3; activity on A, 0-4 scale ([5]; 4 kg/ha): 1-2; activity on F, 0-4 scale (vicia sativa L.; 4 kg/ha): 0; activity on C, 0-4 scale (chenopodium album L.; 4 kg/ha): 2-3 |
| 0 | 0 | 0 | 0 | 0 | 0 | 0 | CCCCN(C(=O)c1ccc(Cl)c(Cl)c1)C(C)CC (stereo not shown) [PA514, 3,4-dichloro-N-n.butyl,N-sec.butyl-benzamide] |  | 0-1 | 1 | 3 | 2 |  | 1 |  | 0-1 |  | 2 |  | 2-3 | activity on E, 0-4 scale (setaria glauca L.; 4 kg/ha): 3 |
